From ChEMBL document CHEMBL3232849, “Structure-activity relationship studies toward the discovery of selective apelin receptor agonists” (J Med Chem, 2014)
Calls of active or inactive are those of the source. The calls are words filed in the database; no cut-off is given here.

Experiments:
Apelin receptor [1] = molecular target: T1, Apelin receptor (Homo sapiens, UniProt P35414); experiment: Displacement of [125I]-pE13F from human apelin receptor expressed in CHO cell membranes after 1 hr by gamma counting analysis
T1 sequence (P35414 whole entry): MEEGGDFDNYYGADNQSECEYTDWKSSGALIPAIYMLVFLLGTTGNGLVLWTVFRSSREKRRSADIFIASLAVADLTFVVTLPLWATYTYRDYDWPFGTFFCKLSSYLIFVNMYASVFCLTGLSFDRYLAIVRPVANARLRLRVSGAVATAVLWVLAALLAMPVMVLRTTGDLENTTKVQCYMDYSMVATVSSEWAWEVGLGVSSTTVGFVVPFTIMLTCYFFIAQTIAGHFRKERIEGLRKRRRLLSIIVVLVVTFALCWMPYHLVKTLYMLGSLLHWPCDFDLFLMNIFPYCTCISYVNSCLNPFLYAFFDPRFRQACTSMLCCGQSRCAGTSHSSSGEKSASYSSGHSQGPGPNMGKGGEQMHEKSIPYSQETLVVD

[2] = molecular target: T2, Apelin receptor (Rattus norvegicus) (UniProt Q9JHG3); experiment: Agonist activity at rat apelin receptor expressed in CHO cell membranes coexpressing EGFP assessed as receptor internalization at 100 uM after 20 mins by confocal microscopic analysis; format: cell-based
T2 sequence (whole entry): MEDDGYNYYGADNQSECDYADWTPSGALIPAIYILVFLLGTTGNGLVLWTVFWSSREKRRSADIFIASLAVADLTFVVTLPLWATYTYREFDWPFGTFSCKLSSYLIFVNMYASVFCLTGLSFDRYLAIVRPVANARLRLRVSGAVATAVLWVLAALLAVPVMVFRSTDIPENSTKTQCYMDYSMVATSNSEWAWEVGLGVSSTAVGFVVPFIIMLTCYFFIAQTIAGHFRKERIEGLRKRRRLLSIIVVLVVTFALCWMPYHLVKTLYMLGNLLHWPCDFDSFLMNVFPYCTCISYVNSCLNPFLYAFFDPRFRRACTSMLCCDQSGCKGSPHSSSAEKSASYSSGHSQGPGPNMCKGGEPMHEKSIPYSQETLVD

[3] = molecular target: T3, Type-1 angiotensin II receptor (Homo sapiens, UniProt P30556); experiment: Displacement of [125I]-angiotensin 2 from human angiotensin 2 type-1 receptor expressed in CHO cell membranes after 1 hr by gamma counting analysis
T3 sequence (P30556 whole entry): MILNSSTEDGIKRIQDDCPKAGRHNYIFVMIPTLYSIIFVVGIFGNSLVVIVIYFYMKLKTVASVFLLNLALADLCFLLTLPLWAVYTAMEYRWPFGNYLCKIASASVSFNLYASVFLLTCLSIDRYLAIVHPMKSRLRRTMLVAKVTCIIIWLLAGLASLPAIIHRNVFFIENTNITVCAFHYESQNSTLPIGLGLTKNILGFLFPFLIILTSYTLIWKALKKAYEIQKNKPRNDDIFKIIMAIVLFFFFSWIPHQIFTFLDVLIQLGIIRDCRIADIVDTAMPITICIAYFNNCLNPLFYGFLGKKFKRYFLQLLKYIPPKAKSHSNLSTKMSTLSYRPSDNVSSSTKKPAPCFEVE

Apelin receptor [4] = molecular target: T4, Apelin receptor (Rattus norvegicus, UniProt Q9JHG3); experiment: (§1) Agonist activity at rat apelin receptor expressed in CHO cell membranes coexpressing EGFP assessed as inhibition of forskolin-induced cAMP production after 30 mins by fluorescence analysis; format: functional, cell-based
T4 sequence (Q9JHG3 whole entry): T2 sequence (whole entry)

[5] = Half life in mouse plasma at 5 uM at 37 degC by LC-MS analysis; format: ADME, cell-free
[6] = molecular target: T2, Apelin receptor (Rattus norvegicus); experiment: as §1; format: functional, cell-based
[7] = molecular target: T2, Apelin receptor (Rattus norvegicus); experiment: Agonist activity at rat apelin receptor expressed in CHO cell membranes coexpressing EGFP assessed as inhibition of forskolin-induced cAMP production after 30 mins by fluorescence analysis relative to control; format: functional, cell-based
[8] = Dissociation constant, pKa of the compound in water at 2 mM by potentiometric titration analysis; format: physicochemical
[9] = molecular target: T2, Apelin receptor (Rattus norvegicus); experiment: Agonist activity at rat apelin receptor expressed in CHO cell membranes coexpressing EGFP assessed as receptor internalization at 100 nM after 20 mins by confocal microscopic analysis; format: cell-based

Row | Compound | Ki (Apelin receptor [1]) [µM] | Activity [2] | further results
1 | CCN(CC)c1ccc2c(-c3ccc(S(=O)(=O)NCCCC[C@H](NC(=O)Cc4csc(=N)n4C)C(=O)N[C@@H](Cc4cn(Cc5ccccc5)c[n+]4C)C(=O)NCC4CCN(C)CC4)cc3S(=O)(=O)[O-])c3ccc(=[N+](CC)CC)cc-3oc2c1 | 0.18 | Active | 
2 | CCN(CC)c1ccc2c(-c3ccc(S(=O)(=O)NCCCC[C@H](NC(C)=O)C(=O)N[C@@H](Cc4cn(Cc5ccccc5)c[n+]4C)C(=O)NC4CCN(C)CC4)cc3S(=O)(=O)O)c3ccc(=[N+](CC)CC)cc-3oc2c1 | 1.2 |  | 
3 | CCN(CC)c1ccc2c(-c3ccc(S(=O)(=O)NCCCC[C@H](NC(=O)Cc4csc(=N)[nH]4)C(=O)N[C@@H](Cc4cn(Cc5ccccc5)c[n+]4C)C(=O)NC4CCN(C)CC4)cc3S(=O)(=O)[O-])c3ccc(=[N+](CC)CC)cc-3oc2c1 | 0.85 | inactive | 
4 | CCN(CC)c1ccc2c(-c3ccc(S(=O)(=O)NCCCC[C@H](NC(=O)Cc4csc(=N)n4C)C(=O)N[C@@H](Cc4cn(Cc5ccccc5)cn4)C(=O)NC4CCN(C)CC4)cc3S(=O)(=O)[O-])c3ccc(=[N+](CC)CC)cc-3oc2c1 | 0.96 | Active | 
5 | CCN(CC)c1ccc2c(-c3ccc(S(=O)(=O)NCCCC[C@H](NC(=O)Cc4csc(=N)n4C)C(=O)N[C@@H](Cc4cn(Cc5ccccc5)c[n+]4C)C(=O)NC4CCN(C)CC4)cc3S(=O)(=O)[O-])c3ccc(=[N+](CC)CC)cc-3oc2c1.O=C(O)C(F)(F)F.O=C(O)C(F)(F)F.O=C([O-])C(F)(F)F | 0.4 | Active | Ki [3]: > 1000 µM; inhibition [6]: Dose-dependent effect; IC50 (Apelin receptor [4]): 3 µM; Imax [7]: 77%; half-life at 5 µM [5]: > 10 h
6 | COC(=O)Cc1csc(N)n1 |  |  | pKa at 2000 µM [8]: 4.83
7 | CCN(CC)c1ccc(C(=C2C=CC(=[N+](CC)CC)C=C2)c2ccc(S(=O)(=O)NCCCC[C@H](NC(=O)Cc3csc(=N)n3C)C(=O)N[C@@H](Cc3cn(Cc4ccccc4)c[n+]3C)C(=O)NC3CCN(C)CC3)cc2S(=O)(=O)[O-])cc1.O=C(O)C(F)(F)F.O=C(O)C(F)(F)F.O=C([O-])C(F)(F)F | 0.089 | inactive | Ki [3]: 98 µM; inhibition [6]: Dose-dependent effect; IC50 (Apelin receptor [4]): 1.7 µM; Imax [7]: 69%; half-life at 5 µM [5]: > 10 h
8 | COC(=O)Cc1csc(=N)n1C |  |  | pKa at 2000 µM [8]: 9.77
9 | CCN(CC)c1ccc2c(-c3ccc(S(=O)(=O)NCCCC[C@H](NC(=O)Cc4csc(=N)n4C)C(=O)N[C@@H](Cc4cn(Cc5ccccc5)c[n+]4C)C(=O)NC4CCN(Cc5ccccc5)CC4)cc3S(=O)(=O)[O-])c3ccc(=[N+](CC)CC)cc-3oc2c1 | 0.27 | Active | 
10 | CC(=O)NCCCC[C@H](NC(=O)Cc1csc(=N)n1C)C(=O)N[C@@H](Cc1cn(Cc2ccccc2)c[n+]1C)C(=O)NC1CCN(C)CC1 | > 100 |  | 
11 | CCN(CC)c1ccc2c(-c3ccc(S(=O)(=O)NCCCC[C@H](NC(=O)Cc4csc(=N)n4C)C(=O)N[C@@H](C)C(=O)NC4CCN(C)CC4)cc3S(=O)(=O)[O-])c3ccc(=[N+](CC)CC)cc-3oc2c1 | 0.45 | inactive | 
12 | CSCC[C@H](NC(=O)[C@@H]1CCCN1C(=O)CNC(=O)[C@H](CCCCN)NC(=O)[C@H](Cc1cnc[nH]1)NC(=O)[C@H](CO)NC(=O)[C@H](CC(C)C)NC(=O)[C@H](CCCNC(=N)N)NC(=O)[C@@H]1CCCN1C(=O)[C@H](CCCNC(=N)N)NC(=O)[C@H](CCC(N)=O)NC(=O)[C@H](CCCNC(=N)N)NC(=O)[C@H](CCCNC(=N)N)NC(=O)[C@H](Cc1ccccc1)NC(=O)[C@@H](N)CCCCN)C(=O)N1CCC[C@H]1C(=O)N[C@@H](Cc1ccccc1)C(=O)O |  |  | Activity [9]: Active; Ki [3]: > 100 µM; inhibition [6]: Dose-dependent effect; IC50 (Apelin receptor [4]): 0.0014 µM; Imax [7]: 85%; half-life at 5 µM [5]: 0.0767 h

Now from value to compound, other results behind:

Row | Ki (Apelin receptor [1]) [µM] | Activity [2] | Compound | further results
13 | 9 |  | CCN(CC)c1ccc2c(-c3ccc(S(=O)(=O)NCCCCCCCCCCCCNC(=O)NCCCC[C@H](NC(=O)Cc4csc(=N)[nH]4)C(=O)N[C@@H](Cc4cn(Cc5ccccc5)cn4)C(=O)NC4CCN(C)CC4)cc3S(=O)(=O)[O-])c3ccc(=[N+](CC)CC)cc-3oc2c1 | 
14 | 0.43 |  | CCN(CC)c1ccc2c(-c3ccc(S(=O)(=O)NCCCCCCCCCCCCNC(=O)NCCCC[C@H](NC(=O)Cc4csc(=N)n4C)C(=O)N[C@@H](Cc4cn(Cc5ccccc5)c[n+]4C)C(=O)NC4CCN(C)CC4)cc3S(=O)(=O)O)c3ccc(=[N+](CC)CC)cc-3oc2c1 [listing 1 of 2 here] | 
15 | 0.69 |  | CCN(CC)c1ccc2c(-c3ccc(S(=O)(=O)NCCCCCCCCCCCCNC(=O)NCCCC[C@H](NC(=O)Cc4csc(=N)n4C)C(=O)N[C@@H](Cc4cn(Cc5ccccc5)c[n+]4C)C(=O)NC4CCN(C)CC4)cc3S(=O)(=O)O)c3ccc(=[N+](CC)CC)cc-3oc2c1 [listing 2 of 2 here] | Ki [3]: 2.23 µM; IC50 (Apelin receptor [4]): 4.3 µM; half-life at 5 µM [5]: > 10 h
16 | 1.5 |  | CCN(CC)c1ccc2c(-c3ccc(S(=O)(=O)NCCCCCCCCCCCCNC(=O)NCCCC[C@H](NC(=O)Cc4csc(=N)n4C)C(=O)N[C@@H](Cc4cn(Cc5ccccc5)cn4)C(=O)NC4CCN(C)CC4)cc3S(=O)(=O)[O-])c3ccc(=[N+](CC)CC)cc-3oc2c1 | 
17 | 1.4 |  | CCN(CC)c1ccc2c(-c3ccc(S(=O)(=O)NCCCCCCCCCCCCNC(=O)NCCCC[C@H](NC(=O)Cc4csc(=N)n4C)C(=O)N[C@@H](Cc4cn(Cc5ccccc5)c[n+]4C)C(=O)NC4CC[N+](C)(C)CC4)cc3S(=O)(=O)O)c3ccc(=[N+](CC)CC)cc-3oc2c1 | 
18 | 3 |  | CCN(CC)c1ccc2c(-c3ccc(S(=O)(=O)NCCCCCCCCCCCCNC(=O)NCCCC[C@H](NC(=O)Cc4csc(=N)n4C)C(=O)N[C@@H](Cc4cn(Cc5ccccc5)cn4)C(=O)NC4CC[N+](C)(C)CC4)cc3S(=O)(=O)O)c3ccc(=[N+](CC)CC)cc-3oc2c1 | 
19 |  | Active | CCN(CC)c1ccc2c(-c3ccc(S(=O)(=O)NCCCCCCCCCCCCNC(=O)NCCCC[C@H](NC(=O)Cc4csc(=N)n4C)C(=O)N[C@@H](Cc4cn(Cc5ccccc5)c[n+]4C)C(=O)NC4CCN(C)CC4)cc3S(=O)(=O)[O-])c3ccc(=[N+](CC)CC)cc-3oc2c1 | inhibition [6]: Dose-dependent effect; Imax [7]: 100%
20 | 0.31 | Active | CCN(CC)c1ccc2c(-c3ccc(S(=O)(=O)NCCCCCCNC(=O)NCCCC[C@H](NC(=O)Cc4csc(=N)n4C)C(=O)N[C@@H](Cc4cn(Cc5ccccc5)c[n+]4C)C(=O)NC4CCN(C)CC4)cc3S(=O)(=O)[O-])c3ccc(=[N+](CC)CC)cc-3oc2c1 | 
21 | 0.98 | inactive | CCN(CC)c1ccc2c(-c3ccc(S(=O)(=O)NCCCC[C@H](NC(=O)Cc4csc(=N)n4C)C(=O)N[C@@H](Cc4cn(Cc5ccccc5)c[n+]4C)C(=O)NC4CCOCC4)cc3S(=O)(=O)[O-])c3ccc(=[N+](CC)CC)cc-3oc2c1 | 
22 | 0.97 |  | CCN(CC)c1ccc2c(-c3ccc(S(=O)(=O)NCCCC[C@H](NC(=O)Cc4csc(=N)n4C)C(=O)N[C@@H](Cc4cn(Cc5ccccc5)c[n+]4C)C(=O)N[C@@H](C)C(N)=O)cc3S(=O)(=O)O)c3ccc(=[N+](CC)CC)cc-3oc2c1 | 
23 | > 100 |  | CCN(CC)c1ccc2c(-c3ccc(S(=O)(=O)NCCCCNCCCC[C@H](NC(=O)Cc4csc(=N)n4C)C(=O)N[C@@H](Cc4cn(Cc5ccccc5)c[n+]4C)C(=O)NC4CCN(C)CC4)cc3S(=O)(=O)O)c3ccc(=[N+](CC)CC)cc-3oc2c1 | 
